{"source": "patent US5441983A", "about": "“Treatment of infection by enveloped virus with calix(N)arene compounds” (Genelabs Incorporated, priority 1992, dated 1995)", "key": {"HSV-2": {"system": "HSV-2", "experiment": "Plaque reduction assay, HSV-2, Vero cells", "type": "cell-based, HSV-2 (333)", "conditions": "Human alphaherpesvirus 2, Vero"}, "[1]": {"system": "HSV glycoproteins gD, gB, and gC", "experiment": "Identification of KY-1 binding proteins", "design": "species or system HSV-1", "conditions": "FIG. 32B", "text": "In a fourth study, the binding of radiolabeled KY-1 compound to HSV-1 and HSV-2 viral proteins was examined. After compound binding, virus proteins were fractionated by sodium dodecyl sulfate polyacrylamide gel electrophoresis (SDS-PAGE), and the gel patterns developed by autoradiography. In FIG. 32A, lanes A and B in the figure are autoradiographs of HSV-1 proteins in the presence ([…]) and absence (lane B) of mercaptoethanol, and lanes C and D, analogous patterns for HSV-2 proteins. The lane at the right contains the molecular weight markers, as indicated. The major bands of drug binding in HSV-1 have molecular weights, as determined from SDS-PAGE, of 45, 66, and about 130 kilodaltons.\nHSV-1 and HSV-2 virus suspensions were solubilized with SDS and fractionated on SDS-PAGE as above. Each sample was run in triplicate, corresponding to groups D, B, and C in FIG. 32B. The two gels in each group were analyzed by Western blotting as follows: The gels in groups D, B, and C were first reacted with mouse monoclonal antibody specific against HSV glycoprotein gD, gB, and dC, respectively. The antibodies were obtained from Dr. S. Chatterjee from the University of Alabama. The gels were then incubated with alkaline phosphatase-labeled goat antimouse antibody, to label the glycoprotein in each group. […]"}, "[2]": {"system": "HSV-1 binding to Vero cells", "experiment": "Inhibition of binding of radiolabeled HSV-1 to Vero cells", "type": "cell-based", "conditions": "10 μg/ml KY-1, FIG. 30", "procedure": "In one study, the ability of a macrocyclic compound to block HSV binding to infectable cells was examined as described in Example 14. Briefly, Vero cells were exposed to radiolabeled HSV-1 or HSV-2 in the absence of KY compound or in the presence of 10 μg/ml KY-1, and binding of the virus at times up to 4 hours after exposure to the virus was measured. […] In the absence of drug, the amount of bound virus increased steadily over two hours, and slightly from 2-4 hours. By contrast, virus binding to cells peaked at about 1/2 hour in the presence of drug, presumably reflecting the time during which the binding events effective to block virus binding to the cells are equilibrating.\nAt time intervals of 5, 30, 60, 120, and 240 minutes, cells were removed from the suspension, washed two times with PBS, and assayed for bound virus (cpm ^3 H). The results are given in FIG. 30, where the control virus binding is indicated by solid circles, and the drug-inhibited binding, by open rectangles."}, "HSV-2 333 (DHPG)'": {"system": "HSV-2 333 (DHPG)'", "experiment": "Inhibition of viral yield, drug-resistant HSV-2 333(DHPG)'", "conditions": "Human alphaherpesvirus 2, HeLa, read-out: ID90", "experimental": "These compounds tested were the nucleoside analogs acyclovir (ACV), ganciclovir (DHPG), phosphonoformate (PFA), and phosphomethoxyethyladenine (PMEA). Inhibition of viral yield was determined, as above, by infecting Hela cells in the presence of wild type or drug-resistant strains of HSV-1 or HSV-2, and serial dilutions of a selected anti-viral compound, and infecting Vero cells with serial dilutions of the Hela cell lysate, as above.\nThe KOS (HSV-1) and 333 (HSV-2) are wild type viruses; the KOS(PMEA)' and KOS(PFA)' are drug-resistant HSV-1 strains having a DNA polymerase mutation. The 333(DHPG) strain is a drug-resistantHSV-2 strain having a thymidine kinase mutation.\nThe following strains of HSV-1 and HSV-2 virus were used: KOS, a wild type HSV-1 virus; KOS (PMEA) and KOS (PFA), both drug-resistant HSV-1 viruses having a DNA polymerase mutation; 333, a wild type HSV-2 HSV-2 virus, and 333 (DHPG), a drug-resistant HSV-2 virus having a thymidine kinase mutation.\nAfter growth at 37° C. for 24 hours in 2 ml of RPMI-1640 containing 2% FCS and penicillin and streptomycin (P/S), the cells were frozen at -70° C. until the time for titration. The cells were freeze/thawed 3 times to release virus from the cells, serially diluted 10 fold, and the serial dilutions were added to Vero cells in culture. After 2 hours incubation at 37° C. the virus was removed and 0.5 ml methycellulose (4K cps) in RPMI-1640 and 2% FCS+P/S was added. Two days later, the medium was removed. The cells were stained in 0.8% crystal violet in 50% ethanol. The plaques formed were counted and the titer was calculated from the fold of dilutions. From the drug dose response, the concentration of each drug required to effect a 90% inhibition of virus yield, the IC90 concentration was determined."}}}
{"smiles": "O=S(=O)(O)c1cc2cc(S(=O)(=O)O)c3c(O)c2c(O)c1Cc1c(S(=O)(=O)O)cc2cc(S(=O)(=O)O)c(c(O)c2c1O)Cc1c(S(=O)(=O)O)cc2cc(S(=O)(=O)O)c(c(O)c2c1O)Cc1c(S(=O)(=O)O)cc2cc(S(=O)(=O)O)c(c(O)c2c1O)C3", "note": "[KY-1]", "values": [{"measurement": "IC50", "setting": "HSV-2", "result": 1.7, "unit": "µg/mL"}, {"measurement": "proteins bound (major bands)", "setting": "[1]", "result": "correspond in molecular weight, to HSV glycoproteins gD, gB, and gC"}, {"measurement": "time at which virus binding to cells peaked", "setting": "[2]", "result": "about 1/2"}, {"measurement": "IC90", "setting": "HSV-2 333 (DHPG)'", "result": 3.7, "unit": "µg/mL"}]}
